{
  "source": "patent EP0606683B1",
  "about": "“Means for diagnosis of angiogenic diseases” (INSTITUT FÜR DIAGNOSTIKFORSCHUNG GmbH AN DER FREIEN …, priority 1993, dated 2003)",
  "origin": "cited, not measured here",
  "key": {"[1]": {"test_system": "humanen atheromatösen Koronararterien", "settings": "in vitro incubation; Dashwood et al., 1991"}, "[2]": {"test_system": "deendothelisierten Bereichen der Aorta", "settings": "rabbit, abdominal aorta de-endothelialised by balloon catheter; Kurata et al. 1992"}},
  "data": [
    {"substance": "^125I-Endothelin 1: ^125I-labelled Endothelin 1, ein Polypeptid aus 21 Aminosäuren; used in cited literature studies", "values": [
      {"measurement": "Bindung von ^125I-Endothelin 1 im Bereich der Tunica media sowie in Bereichen der Vasa vasora", "setting": "[1]", "value": "vermehrte Bindung"},
      {"measurement": "Aufnahme von ^125I-Endothelin 1 in den deendothelisierten Bereichen der Aorta", "setting": "[2]", "value": "vermehrte Aufnahme"}
    ]}
  ]
}
